The results in this text go back to article PMC5626627 (The FEBS journal, 2017).

What is called Kd is a measure of binding affinity in units of concentration. A high value points to a looser complex.

Changes are numbered by the printed parent chain.

In assay [1] the target is T1, corn root FNR (ferredoxin:NADP+ reductase) (Zea mays, UniProt B4G043).
T1 sequence (B4G043 66-381): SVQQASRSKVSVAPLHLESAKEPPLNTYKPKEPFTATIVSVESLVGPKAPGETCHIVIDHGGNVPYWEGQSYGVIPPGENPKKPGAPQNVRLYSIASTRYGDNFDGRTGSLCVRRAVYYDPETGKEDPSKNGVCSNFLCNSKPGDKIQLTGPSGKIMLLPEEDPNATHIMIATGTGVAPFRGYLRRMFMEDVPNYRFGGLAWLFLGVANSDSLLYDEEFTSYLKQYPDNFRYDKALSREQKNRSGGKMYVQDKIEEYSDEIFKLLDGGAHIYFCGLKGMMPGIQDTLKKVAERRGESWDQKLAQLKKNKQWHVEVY
In words: anaerobic spectrophotometric titration, flavin charge-transfer bands. Conditions: 50 mM HEPES-NaOH, pH 7.0, 15 °C. The format is biochemical.

Assay [2] concerns the target T2, corn root FNR (ferredoxin:NADP+ reductase) (Zea mays, UniProt B4G043, Y381S).
T2 sequence (B4G043 66-381 Y381S): T1 sequence (B4G043 66-381) with Y316S
In words: anaerobic titration, visible absorption of FAD. It counts as binding.

Assay [3] has as its target T2, corn root FNR (ferredoxin:NADP+ reductase). In words: titration, visible absorption of FAD. The format is binding.

For `NC(=O)C1=CN([C@@H]2O[C@H](COP(=O)(O)OP(=O)(O)OC[C@H]3O[C@@H](n4cnc5c(N)ncnc54)[C@H](OP(=O)(O)O)[C@@H]3O)[C@@H](O)[C@H]2O)C=CC1` [NADPH], the “anaerobic spectrophotometric titration, flavin charge-transfer bands” value in assay [1] is “for wild-type the CTC-1 absorption band dominates”.
`NC(=O)c1ccc[n+]([C@@H]2O[C@H](COP(=O)(O)OP(=O)(O)OC[C@H]3O[C@@H](n4cnc5c(N)ncnc54)[C@H](OP(=O)(O)O)[C@@H]3O)[C@@H](O)[C@H]2O)c1` [NADP^+] yielded a Kd in assay [2] of at most 0.02 µM.
For the molecule `NC(=O)c1ccc[n+]([C@@H]2O[C@H](COP(=O)(O)OP(=O)(O)OC[C@H]3O[C@@H](n4cnc5c(N)ncnc54)[C@H](O)[C@@H]3O)[C@@H](O)[C@H]2O)c1` [NAD^+], the dissociation constant (Kd) in assay [3] worked out at 145 ± 5 µM.
Same read-out and setting: the value for `NC(=O)c1cccnc1` [nicotinamide] was 3000 ± 100 µM.
